From patent publication US20230303540A1 (Merck Sharp & Dohme LLC, priority 2020, published 2023)

Target: GST-tagged truncated human mutant G2019S LRRK2 (Homo sapiens, UniProt Q5S007, G2019S)
Experiment: LRRK2 G2019S Km ATP LanthaScreen assay
Type: biochemical
Conditions: 134 μM ATP (Km ATP), LRRKtide substrate, mean IC50 values; read-out: LRRK2 pIC50 (converted)
Outline: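 Compound preincubated 15 min at room temperature with enzyme in pH 8.5 Tris buffer (10 mM MgCl2). Then a 90 min reaction at ambient temperature with 134 μM (Km) ATP and fluorescein-LRRKtide. EDTA stop, Tb anti-phospho antibody TR-FRET; […]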

CCn1ncc(Nc2ncc3cc(Cl)c(N4CCN(C5(C)COC5)CC4)cc3n2)c1Cl [Ex-4.68, 6-chloro-N-(5-chloro-1-ethyl-1H-pyrazol-4-yl)-7-[4-(3-methyloxetan-3-yl)piperazin-1-yl]quinazolin-2-amine]
IC50: 3.38 nM

CCn1ncc(Nc2ncc3ccc(N4C(=O)CCC4C)cc3n2)c1C (single isomer, unassigned) [Ex-7.17, (R) or (S) 1-{2-[(1-ethyl-5-methyl-1H-pyrazol-4-yl)amino]quinazolin-7-yl}-5-methylpyrrolidin-2-one]
IC50: 54.9 nM

CC1(O)CCN(c2cc3nc(Nc4cnn(C5CC5)c4Cl)ncc3cc2C#N)CC1 [Ex-3.54, 2-[(5-chloro-1-cyclopropyl-1H-pyrazol-4-yl)amino]-7-(4-hydroxy-4-methylpiperidin-1-yl)quinazoline-6-carbonitrile]
IC50: 8.43 nM

CC1(n2ncc(Nc3ncc4cc(Cl)c(N5CCC(N6CC(F)C6)CC5)cc4n3)c2Cl)CC1 [Ex-4.39, 6-chloro-N-[5-chloro-1-(1-methylcyclopropyl)-1H-pyrazol-4-yl]-7-[4-(3-fluoroazetidin-1-yl)piperidin-1-yl]quinazolin-2-amine]
IC50: 0.625 nM

Cc1c(Nc2ncc3cc(Cl)c(N4CCN(C5(C)COCC5O)CC4)cc3n2)cnn1C1CC1(F)F (single isomer, unassigned) [Ex-6.40, (3S,4S) or (3R,4R) 4-[4-(6-chloro-2-{[1-(2,2-(R) or (S)difluorocyclopropyl)-5-methyl-1H-pyrazol-4-yl]amino}quinazolin-7-yl)piperazin-1-yl]-4-methyloxolan-3-ol]
IC50: 0.352 nM

Cn1cc(Nc2ncc3cc(Cl)c(N4CCN(C5(C)COC5)CC4)cc3n2)c(C(F)(F)F)n1 [Ex-4.21, 6-chloro-7-[4-(3-methyloxetan-3-yl)piperazin-1-yl]-N-[1-methyl-3-(trifluoromethyl)-1H-pyrazol-4-yl]quinazolin-2-amine]
IC50: 36.8 nM

Cc1cc2cnc(Nc3cnn(C4CC4)c3Cl)nc2cc1N1CCN(C2(C)COCC2O)CC1 (single isomer, unassigned) [Ex-5.6, (3S,4S) or (3R,4R) 4-(4-(2-((5-chloro-1-cyclopropyl-1H-pyrazol-4-yl)amino)-6-methylquinazolin-7-yl)piperazin-1-yl)-4-methyltetrahydrofuran-3-ol]
IC50: 0.403 nM

COC1CC(Cn2ncc(Nc3ncc4cc(Cl)c(N5CCN(C6(C)COC6)CC5)cc4n3)c2Cl)C1 (stereo not drawn) [Ex-4.69, 6-chloro-N-{5-chloro-1-[(3-methoxycyclobutyl)methyl]-1H-pyrazol-4-yl}-7-[4-(3-methyloxetan-3-yl)piperazin-1-yl]quinazolin-2-amine]
IC50: 3.23 nM

C[C@H]1COC(=O)N1c1ccc2cnc(Nc3cn(C4CCCCC4)nc3Cl)nc2c1 [Ex-10.1, (S)-3-(2-((3-Chloro-1-cyclohexyl-1H-pyrazol-4-yl)amino)quinazolin-7-yl)-4-methyloxazolidin-2-one]
IC50: 7.01 nM

CC1(N2CCN(c3cc4nc(Nc5cnn(C6CC6(F)F)c5Cl)ncc4cc3Cl)CC2)COC1 (single isomer, unassigned) [Ex-4.60, 6-chloro-N-[5-chloro-1-(2,2-(R) or (S)difluorocyclopropyl)-1H-pyrazol-4-yl]-7-[4-(3-methyloxetan-3-yl)piperazin-1-yl]quinazolin-2-amine]
IC50: 3.24 nM

CC1(N2CCN(c3nc4nc(Nc5cnn(CC(F)F)c5Cl)ncc4cc3Cl)CC2)COC1 [Ex-15.2, 6-chloro-N-[5-chloro-1-(2,2-difluoroethyl)-1H-pyrazol-4-yl]-7-[4-(3-methyloxetan-3-yl)piperazin-1-yl]pyrido[2,3-d]pyrimidin-2-amine]
IC50: 60.8 nM

Cn1ncc(Nc2ncc3ccc(N4C(=O)C5CCC4C5)cc3n2)c1C(F)F (single isomer, unassigned) [Ex-4.7, 2-(2-{[5-(difluoromethyl)-1-methyl-1H-pyrazol-4-yl]amino}quinazolin-7-yl)-2-azabicyclo[2.2.1]heptan-3-one]
IC50: 3.19 nM
